Laboratory results: ChEMBL document CHEMBL4819064, “Discovery of new pyrimidopyrrolizine/indolizine-based derivatives as P-glycoprotein inhibitors: Design, synthesis, cytotoxicity, and MDR reversal activities” (Eur J Med Chem, 2021)

Assays:
[1] = Inhibition of P-gp in mouse EMT6/AR1.0 cells assessed reduction in tritiated daunomycin efflux incubated for 2 hrs by radioactivity based assay; assay type: cell-based; settings: EMT6/AR1, 2 h
[2] = test system: MCF7; experiment: Cytotoxicity against human MCF7 cells assessed as reduction in cell viability incubated for 72 hrs by MTT assay; assay type: functional, cell-based; settings: MCF7, 72 h
[3] = test system: A2780; experiment: Cytotoxicity against human A2780 cells assessed as reduction in cell viability incubated for 72 hrs by MTT assay; settings: A2780, 72 h
[4] = test system: HT-29; experiment: Cytotoxicity against human HT29 cells assessed as reduction in cell viability incubated for 72 hrs by MTT assay; settings: HT-29, 72 h
[5] = test system: MRC5; experiment: Cytotoxicity against human MRC5 cells assessed as reduction in cell viability incubated for 72 hrs by MTT assay; settings: MRC5, 72 h
[6] = Selectivity index, ratio of IC50 for human MRC5 cells to IC50 for human MCF7 cells; assay type: toxicity; settings: MRC5 cells versus MCF7 cells, read-out: Ratio IC50
[7] = Selectivity index, ratio of IC50 for human MRC5 cells to IC50 for human A2780 cells; assay type: toxicity; settings: MRC5 cells versus A2780 cells, read-out: Ratio IC50
[8] = Selectivity index, ratio of IC50 for human MRC5 cells to IC50 for human HT29 cells; assay type: toxicity; settings: MRC5 cells versus HT29 cells, read-out: Ratio IC50
[9] = test system: NCI/ADR-RES; experiment: Cytotoxicity against human MCF7/ADR cells assessed as reduction in cell viability incubated for 72 hrs by MTT assay
[10] = test system: NCI/ADR-RES; experiment: Cytotoxicity against human MCF7/ADR cells assessed as reduction in cell viability incubated for 72 hrs in presence of doxorubicin by MTT assay; assay type: functional, cell-based
[11] = Reversal of multidrug resistant activity in human MCF7/ADR cells assessed as reversal fold after 72 hrs by MTT assay; assay type: functional, NCI/ADR-RES
[12] = test system: NCI/ADR-RES; experiment: Synergistic cytotoxicity against human MCF7/ADR cells assessed as combination index at 0.25 uM after 72 hrs in presence of 0.25 uM doxorubicin by MTT assay; assay type: functional
[13] = test system: NCI/ADR-RES; experiment: Synergistic cytotoxicity against human MCF7/ADR cells assessed as combination index at 0.25 uM after 72 hrs in presence of 0.5 uM doxorubicin by MTT assay; assay type: functional
[14] = test system: NCI/ADR-RES; experiment: Synergistic cytotoxicity against human MCF7/ADR cells assessed as combination index at 0.25 uM after 72 hrs in presence of 1 uM doxorubicin by MTT assay; assay type: functional
[15] = test system: NCI/ADR-RES; experiment: Synergistic cytotoxicity against human MCF7/ADR cells assessed as combination index at 0.5 uM after 72 hrs in presence of 0.25 uM doxorubicin by MTT assay; assay type: functional
[16] = test system: NCI/ADR-RES; experiment: Synergistic cytotoxicity against human MCF7/ADR cells assessed as combination index at 0.5 uM after 72 hrs in presence of 0.5 uM doxorubicin by MTT assay; assay type: functional
[17] = test system: NCI/ADR-RES; experiment: Synergistic cytotoxicity against human MCF7/ADR cells assessed as combination index at 0.5 uM after 72 hrs in presence of 1 uM doxorubicin by MTT assay; assay type: functional
[18] = test system: NCI/ADR-RES; experiment: Synergistic cytotoxicity against human MCF7/ADR cells assessed as combination index at 1 uM after 72 hrs in presence of 0.25 uM doxorubicin by MTT assay; assay type: functional
[19] = test system: NCI/ADR-RES; experiment: Synergistic cytotoxicity against human MCF7/ADR cells assessed as combination index at 1 uM after 72 hrs in presence of 0.5 uM doxorubicin by MTT assay; assay type: functional
[20] = test system: NCI/ADR-RES; experiment: Synergistic cytotoxicity against human MCF7/ADR cells assessed as combination index at 1 uM after 72 hrs in presence of 1 uM doxorubicin by MTT assay; assay type: functional
[21] = target: ATP-dependent translocase ABCB1 (Homo sapiens, UniProt P08183); experiment: Inhibition of P-gp activity in human MCF7/ADR cells after 72 hrs by RT-PCR analysis; assay type: cell-based; settings: nci/adr-res, at 125 to 1000 nM, dose 125-1000 nM
ATP-dependent translocase ABCB1, sequence (P08183 whole entry): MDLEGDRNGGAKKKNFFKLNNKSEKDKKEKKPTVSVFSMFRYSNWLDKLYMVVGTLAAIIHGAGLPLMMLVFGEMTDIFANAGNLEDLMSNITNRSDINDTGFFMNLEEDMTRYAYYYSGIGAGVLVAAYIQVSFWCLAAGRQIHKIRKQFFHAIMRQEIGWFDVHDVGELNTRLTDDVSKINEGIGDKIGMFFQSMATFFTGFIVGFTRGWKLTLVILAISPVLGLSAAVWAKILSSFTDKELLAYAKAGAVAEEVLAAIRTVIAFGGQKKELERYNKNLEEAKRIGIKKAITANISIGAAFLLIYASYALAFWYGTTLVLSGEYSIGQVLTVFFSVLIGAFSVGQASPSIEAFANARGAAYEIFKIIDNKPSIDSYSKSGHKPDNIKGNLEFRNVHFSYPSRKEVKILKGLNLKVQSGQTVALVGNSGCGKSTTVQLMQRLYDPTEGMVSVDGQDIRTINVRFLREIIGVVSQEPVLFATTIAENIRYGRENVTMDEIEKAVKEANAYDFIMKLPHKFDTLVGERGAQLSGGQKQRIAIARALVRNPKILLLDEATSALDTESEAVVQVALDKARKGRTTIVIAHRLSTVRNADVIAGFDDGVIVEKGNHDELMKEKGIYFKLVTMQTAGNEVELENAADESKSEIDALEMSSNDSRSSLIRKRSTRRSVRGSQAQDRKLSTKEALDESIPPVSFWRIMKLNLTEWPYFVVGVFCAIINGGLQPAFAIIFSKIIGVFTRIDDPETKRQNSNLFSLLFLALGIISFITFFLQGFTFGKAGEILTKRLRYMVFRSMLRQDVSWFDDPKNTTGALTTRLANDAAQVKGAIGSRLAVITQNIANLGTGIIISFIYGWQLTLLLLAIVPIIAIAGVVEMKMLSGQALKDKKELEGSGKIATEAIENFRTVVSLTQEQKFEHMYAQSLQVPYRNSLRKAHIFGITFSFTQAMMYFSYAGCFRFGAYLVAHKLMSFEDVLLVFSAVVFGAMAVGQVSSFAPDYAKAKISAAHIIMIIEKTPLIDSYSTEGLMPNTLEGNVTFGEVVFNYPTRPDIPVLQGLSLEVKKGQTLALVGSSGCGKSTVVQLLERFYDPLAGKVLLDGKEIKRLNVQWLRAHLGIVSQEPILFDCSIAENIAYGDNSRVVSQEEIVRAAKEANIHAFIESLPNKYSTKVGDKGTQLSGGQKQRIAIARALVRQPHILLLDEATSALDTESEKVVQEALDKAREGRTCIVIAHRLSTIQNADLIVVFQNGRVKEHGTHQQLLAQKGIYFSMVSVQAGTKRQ

[22] = target: T1, P-gp (ABCB1) (Homo sapiens, UniProt P08183); experiment: Inhibition of P-gp activity in human MCF7/ADR cells at 125 nM after 72 hrs by RT-PCR analysis relative to control; assay type: cell-based, NCI/ADR-RES
T1 sequence (P08183 whole entry): as above

[23] = target: T1, P-gp (ABCB1); experiment: Inhibition of P-gp activity in human MCF7/ADR cells at 250 nM after 72 hrs by RT-PCR analysis relative to control; assay type: cell-based, NCI/ADR-RES; settings: MCF7/ADR cells
[24] = target: T1, P-gp (ABCB1); experiment: Inhibition of P-gp activity in human MCF7/ADR cells at 500 nM after 72 hrs by RT-PCR analysis relative to control; assay type: cell-based, NCI/ADR-RES; settings: MCF7/ADR cells
[25] = target: T1, P-gp (ABCB1); experiment: Inhibition of P-gp activity in human MCF7/ADR cells at 1000 nM after 72 hrs by RT-PCR analysis relative to control; assay type: cell-based, NCI/ADR-RES; settings: MCF7/ADR cells

Row | SMILES | IC50 [2] [nM] | IC50 [3] [nM] | IC50 [4] [nM] | IC50 [5] [nM] | selectivity ratio [6] | selectivity ratio [7] | selectivity ratio [8] | IC50 [9] [nM] | IC50 [10] [nM] | fold change (FC) [11] | CI [12] | CI [13] | CI [14] | CI [15] | CI [16] | CI [17] | CI [18] | CI [19] | CI [20] | other results
1 | N#Cc1c2n(c3c(SCc4ccc(Cl)cc4)ncnc13)CCCCC2 | – | – | – | – | – | – | – | – | – | – | – | – | – | – | – | – | – | – | – | IC50 [1]: > 50000 nM
2 | N#Cc1c2c(n3c1CCC3)C(=O)N(c1ccc(F)cc1)CC(=O)N2 | 190 | 970 | 9710 | 1460 | 7.68 | 1.51 | 0.15 | – | – | – | – | – | – | – | – | – | – | – | – | –
3 | N#Cc1c2n(c3c(=O)n(-c4ccc(Cl)cc4)cnc13)CCCC2 | 250 | 70 | 420 | 300 | 1.2 | 4.29 | 0.71 | 37300 | 6330 | 2.88 | >100 | >100 | 0.19 | >100 | >100 | 0.9 | >100 | >100 | 0.21 | –
4 | COc1ccc(-n2c(=O)[nH]c3c(C#N)c4n(c3c2=O)CCC4)cc1 | 19600 | 15600 | 420 | 13800 | 0.71 | 0.88 | 33 | – | – | – | – | – | – | – | – | – | – | – | – | –
5 | N#Cc1c2n(c3c(=O)n(-c4ccc(Br)cc4)cnc13)CCCC2 | 270 | 20 | 14200 | 15800 | 58.6 | 792 | 1.12 | 20200 | 3070 | 5.93 | >100 | >100 | 0.2 | >100 | 1.141 | 0.91 | >100 | 1.53 | 0.1 | inhibition (INH) [21]: Dose-Dependent Effect; inhibition at 72 h, 0.125 µM [22]: 5%; inhibition at 72 h, 0.25 µM [23]: 63%; inhibition at 72 h, 0.5 µM [24]: 87%; inhibition at 72 h, 1 µM [25]: 90%
6 | O=C(Nc1ccc(F)cc1)c1c2nc[nH]c(=O)c2c2n1CCC2 | 740 | 580 | 1020 | 170 | 0.23 | 0.29 | 0.17 | – | – | – | – | – | – | – | – | – | – | – | – | –
7 | Cc1nc2c(C#N)c3n(c2c(=O)n1-c1ccc(Cl)cc1)CCCC3 | 10800 | 630 | 10500 | 1540 | 0.14 | 2.44 | 0.15 | – | – | – | – | – | – | – | – | – | – | – | – | –
8 | Cc1nc2c(C#N)c3n(c2c(=O)n1-c1ccc(F)cc1)CCC3 | 170 | 150 | 780 | 2780 | 16.4 | 18.5 | 3.56 | 46900 | 6120 | 2.98 | >100 | >100 | 0.89 | >100 | >100 | 0.2 | >100 | 9.602 | 0.1 | –
9 | N#Cc1c2n(c3c(=O)n(-c4ccc(F)cc4)cnc13)CCC2 | 650 | 720 | 480 | 11200 | 17.3 | 15.6 | 23.4 | 10300 | 2210 | 8.24 | >100 | 14.6 | 0.6 | >100 | 1.089 | 0.12 | >100 | 2.647 | 0.1 | inhibition (INH) [21]: Dose-Dependent Effect; inhibition at 72 h, 0.125 µM [22]: 9%; inhibition at 72 h, 0.25 µM [23]: 65%; inhibition at 72 h, 0.5 µM [24]: 91%; inhibition at 72 h, 1 µM [25]: 92%
10 | COc1ccc(N2CC(=O)Nc3c(C#N)c4n(c3C2=O)CCC4)cc1 | 2830 | 6280 | 200 | 9570 | 3.38 | 1.52 | 47.9 | – | – | – | – | – | – | – | – | – | – | – | – | –
11 | COc1ccc(NC(=O)c2c3nc[nH]c(=O)c3c3n2CCC3)cc1 | 1430 | 15600 | 140 | 1530 | 1.07 | 0.1 | 10.9 | – | – | – | – | – | – | – | – | – | – | – | – | –
12 | Cc1nc2c(C#N)c3n(c2c(=O)n1-c1ccccc1)CCCC3 | 1790 | 50 | 880 | 7580 | 4.23 | 152 | 8.61 | – | – | – | – | – | – | – | – | – | – | – | – | –
13 | COc1ccc(-n2c(C)nc3c(C#N)c4n(c3c2=O)CCC4)cc1 | 80 | 70 | 160 | 17300 | 216 | 247 | 108 | 30500 | 7580 | 2.4 | >100 | 11.363 | 0.19 | 37.214 | 2.952 | 0.2 | >100 | 5.646 | 0.3 | –
14 | N#Cc1c2n(c3c(=O)n(-c4ccc(F)cc4)c(=O)[nH]c13)CCC2 | 880 | 730 | 4380 | 240 | 0.27 | 0.33 | 0.05 | – | – | – | – | – | – | – | – | – | – | – | – | –
15 | Cc1nc2c(C#N)c3n(c2c(=O)n1-c1ccc(Br)cc1)CCCC3 | 1650 | 160 | 10800 | 3710 | 2.25 | 23.2 | 0.35 | – | – | – | – | – | – | – | – | – | – | – | – | –
16 | COc1ccc(-n2cnc3c(C#N)c4n(c3c2=O)CCC4)cc1 | 2610 | 1360 | 11000 | 20600 | 7.88 | 15.1 | 1.88 | – | – | – | – | – | – | – | – | – | – | – | – | –
